Data on 58 compounds can be found in ChEMBL document CHEMBL5729376, “SSAO inhibitors and use thereof” (2022).

The target of assay [1] is T1, Amine oxidase [flavin-containing] A (Homo sapiens, UniProt P21397).
T1 sequence (P21397 whole entry): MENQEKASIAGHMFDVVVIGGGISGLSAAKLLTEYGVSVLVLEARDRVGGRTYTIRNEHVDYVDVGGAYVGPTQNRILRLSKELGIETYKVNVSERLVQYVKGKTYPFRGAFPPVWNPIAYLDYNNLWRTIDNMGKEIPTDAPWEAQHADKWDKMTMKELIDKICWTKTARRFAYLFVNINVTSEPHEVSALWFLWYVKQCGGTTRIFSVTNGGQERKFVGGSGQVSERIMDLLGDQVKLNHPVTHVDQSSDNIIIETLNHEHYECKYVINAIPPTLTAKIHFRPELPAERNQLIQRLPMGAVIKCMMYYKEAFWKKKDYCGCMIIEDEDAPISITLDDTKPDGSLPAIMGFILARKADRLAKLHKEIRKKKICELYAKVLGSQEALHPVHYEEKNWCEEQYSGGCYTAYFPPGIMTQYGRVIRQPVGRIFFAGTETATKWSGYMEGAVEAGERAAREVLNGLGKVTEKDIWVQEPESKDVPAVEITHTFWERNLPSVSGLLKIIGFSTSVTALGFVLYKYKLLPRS
As to the kind of experiment: (§1) SSAO Activity Assay: Amine oxidase activity of recombinant hSSAO, hMAO-A, and hMAO-B isoforms are measured using the MAO-Glo assay kit (Promega, V1402). Ten nL test compounds (with DMSO as vehicle, 0.1% v/v for hSSAO, hMAO-A and hMAO-B) were added into assay plates by Echo, and pre-incubated with 5 μL of enzyme for 30 mins at room temperature before the addition of 5 μL of luminogenic substrate. The substrate concentration is 40 μM for human recombinant SSAO, 40 μM for human recombinant MAO-A, and 4 μM for human recombinant MAO-B. The hSSAO and hMAO-A assays were conducted in the MAO-A reaction buffer in the kit, and the MAO-B assay was conducted in the MAO-B reaction buffer. Oxidation of the substrate was conducted for 1 hr, before the addition of detecting reagent according the manufacture's protocol. The IC50 value of the tested compounds was calculated by fitting the dose response curve using a 4-parameter non-linear regression routine.

The target in assay [2] is T2, Amine oxidase [flavin-containing] B (Homo sapiens, UniProt P27338).
T2 sequence (P27338 whole entry): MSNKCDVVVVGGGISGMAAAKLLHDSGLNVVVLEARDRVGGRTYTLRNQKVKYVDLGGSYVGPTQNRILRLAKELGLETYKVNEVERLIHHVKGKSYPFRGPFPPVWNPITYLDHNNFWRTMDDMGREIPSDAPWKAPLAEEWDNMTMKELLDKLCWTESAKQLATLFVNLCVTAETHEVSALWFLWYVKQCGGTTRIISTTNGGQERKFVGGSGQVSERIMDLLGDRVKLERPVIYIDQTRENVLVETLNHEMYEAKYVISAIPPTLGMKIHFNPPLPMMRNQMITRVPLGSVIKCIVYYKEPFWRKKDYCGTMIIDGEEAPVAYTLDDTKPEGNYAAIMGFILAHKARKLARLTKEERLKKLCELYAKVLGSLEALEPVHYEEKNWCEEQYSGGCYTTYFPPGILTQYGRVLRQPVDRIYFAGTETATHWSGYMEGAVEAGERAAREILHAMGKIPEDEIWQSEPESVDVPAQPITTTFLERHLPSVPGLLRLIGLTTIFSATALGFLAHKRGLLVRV
Described as §1.

A value given as a limit tells only on which side of the number the result lay.

With `NC/C(=C\F)COc1ccc(S(=O)(=O)Cn2ccccc2=O)cc1`, the IC50 in assay [1] was above 30 µM; in assay [2], below 10 µM.
Regarding `NC/C(=C\F)COc1ccc(S(=O)(=O)CC2CCN(C(=O)C34CC(F)(C3)C4)CC2)cc1`, the half-inhibitory concentration (IC50) in assay [2] was below 10 µM.
In the case of `N#CC12CCC(CS(=O)(=O)c3ccc(OC/C(=C/F)CN)cc3)(CC1)CC2`, the concentration for half-maximal inhibition (IC50) in assay [1] is above 30 µM; in assay [2], below 10 µM.
With `NC/C(=C\F)COc1ccc(S(=O)(=O)C[C@H]2CCOC2)cc1`, the IC50 in assay [1] was 10 to 30 µM; in assay [2], below 10 µM.
The matching figures for `NC/C(=C\F)COc1ccc(S(=O)(=O)COC2CCN(C(=O)C3CCCC3)CC2)cc1`: above 30 µM and above 30 µM.
Turning to `COC1(CS(=O)(=O)c2ccc(OC/C(=C/F)CN)cc2)CCOCC1`, the IC50 in assay [1] was above 30 µM; in assay [2], below 10 µM.
On the same counts, the results for `NC/C(=C\F)COc1ccc(S(=O)(=O)CC2CCOCC2)cc1F` are below 10 µM and below 10 µM.
Take `NC/C(=C\F)COc1ccc(S(=O)(=O)CC23CCC(C4(NC(=O)C5CC5)CC4)(CC2)CC3)cc1`: the IC50 in assay [1] and in assay [2] was above 30 µM each time.
With `NC/C(=C\F)COc1ccc(S(=O)(=O)CC23CCC(C(=O)O)(CC2)CC3)cc1`, the IC50 in assay [1] and in assay [2] was above 30 µM in each case.
As for `NC/C(=C\F)COc1ccc(S(=O)(=O)CC23CCC(C(=O)NC4CCC4)(CC2)C3)cc1`, the IC50 in assay [1] is above 30 µM; in assay [2] it was below 10 µM.
On the same counts, the results for `NC/C(=C\F)COc1ccc(S(=O)(=O)CC23CCC(N4CCCS4(=O)=O)(CC2)CC3)cc1` are above 30 µM and above 30 µM.
`NC/C(=C\F)COc1ccc(S(=O)(=O)COCC2CCOCC2)cc1`: the half-inhibitory concentration (IC50) is above 30 µM in assay [1] and 10 to 30 µM in assay [2].
The matching figures for `NC/C(=C\F)COc1ccc(S(=O)(=O)C[C@H]2CC[C@H](NC(=O)C3CC3)CC2)cc1`: above 30 µM and below 10 µM.
Consider `NC/C(=C\F)COc1ccc(S(=O)(=O)CC2(CN3CCCCC3=O)CC2)cc1`, for which the IC50 in assay [1] and in assay [2] was above 30 µM in each case.
For the compound `CC(C)C(=O)Nc1ccc(CS(=O)(=O)c2ccc(OC/C(=C/F)CN)cc2)cc1`, the IC50 in assay [1] was above 30 µM; in assay [2] it was below 10 µM.
The matching figures for `CC1(CS(=O)(=O)c2ccc(OC/C(=C/F)CN)cc2F)CCOCC1`: below 10 µM and below 10 µM.
In the case of `NC/C(=C\F)COc1ccc(S(=O)(=O)C[C@H]2CC[C@H](O)CC2)cc1`, the half-inhibitory concentration (IC50) in assay [1] and in assay [2] was 10 to 30 µM in each case.
As to `C[C@H](CN1CCCC1=O)CS(=O)(=O)c1ccc(OC/C(=C/F)CN)cc1`, the half-inhibitory concentration (IC50) in assay [1] and in assay [2] was above 30 µM in each case.
Take `NC/C(=C\F)COc1ccc(S(=O)(=O)CC23CCC(C(=O)N4CCC(F)(F)CC4)(CC2)CC3)cc1`: the IC50 in assay [1] and in assay [2] was above 30 µM each time.
Regarding `NC/C(=C\F)COc1ccc(S(=O)(=O)C[C@H]2CCCO2)cc1`, the half-inhibitory concentration (IC50) is above 30 µM in assay [1] and below 10 µM in assay [2].
For `CC(C)(C)C(=O)N1CCN(CS(=O)(=O)c2ccc(OC/C(=C/F)CN)cc2)C(=O)C1`, the half-inhibitory concentration (IC50) in assay [2] is below 10 µM.
Consider `NC/C(=C\F)COc1ccc(S(=O)(=O)Cc2ccc(C(=O)N3CCCC3)cc2)cc1`, for which the IC50 in assay [1] and in assay [2] was above 30 µM each time.
Turning to `NC/C(=C\F)COc1ccc(S(=O)(=O)CC2(O)CCOCC2)cc1`, the figures for the IC50 in assay [1] and in assay [2] were above 30 µM and below 10 µM, respectively.
The matching figures for `N#CC1(COCS(=O)(=O)c2ccc(OC/C(=C/F)CN)cc2)CCOCC1`: above 30 µM and above 30 µM.
The matching figures for `NC/C(=C\F)COc1ccc(S(=O)(=O)C[C@@H]2CCCO2)cc1`: above 30 µM and below 10 µM.
With `COCS(=O)(=O)c1ccc(OC/C(=C/F)CN)cc1`, the IC50 in assay [1] is above 30 µM.
On the same count and under the same terms, the figure for `NC/C(=C\F)COc1ccc(S(=O)(=O)CC23CCC(C(=O)NC4CCC4)(CC2)CC3)cc1` is above 30 µM.
With `CC(C)C(=O)N1CCC(C)(CS(=O)(=O)c2ccc(OC/C(=C/F)CN)cc2)CC1`, the half-maximal inhibitory concentration (IC50) in assay [1] and in assay [2] was above 30 µM in each case.
For the compound `NC/C(=C\F)COc1ccc(S(=O)(=O)CC2CCN(C(=O)C3CC3)CC2)c(Cl)c1`, the IC50 in assay [1] and in assay [2] was above 30 µM in each case.
Consider `CO[C@H]1CC[C@H](CS(=O)(=O)c2ccc(OC/C(=C/F)CN)cc2)CC1`, for which the 50% inhibitory concentration (IC50) was 10 to 30 µM in assay [1] and below 10 µM in assay [2].
Turning to `NC/C(=C\F)COc1ccc(S(=O)(=O)C[C@@H]2CCOC2)cc1`, the IC50 in assay [1] is 10 to 30 µM; in assay [2], below 10 µM.
Take `CC1(COCS(=O)(=O)c2ccc(OC/C(=C/F)CN)cc2)CCN(C(=O)C(C)(C)C)CC1`: the 50% inhibitory concentration (IC50) in assay [1] was above 30 µM; in assay [2], below 10 µM.
Take `NC/C(=C\F)COc1ccc(S(=O)(=O)Cc2cnc(N3CCCC3)nc2)cc1`: the figures for the half-inhibitory concentration (IC50) in assay [1] and in assay [2] were above 30 µM and below 10 µM, respectively.
Regarding `NC/C(=C\F)COc1ccc(S(=O)(=O)CC23CCC(O)(CC2)CC3)cc1`, the IC50 in assay [1] was above 30 µM.
Take `COCC(COC)OCS(=O)(=O)c1ccc(OC/C(=C/F)CN)cc1`: the 50% inhibitory concentration (IC50) was above 30 µM in assay [1] and below 10 µM in assay [2].
For the compound `NC/C(=C\F)COc1ccc(S(=O)(=O)C[C@H]2CC[C@@H](O)CC2)cc1`, the IC50 in assay [1] and in assay [2] was below 10 µM throughout.
As to `CC(C)C(=O)N1CCC(C)(COCS(=O)(=O)c2ccc(OC/C(=C/F)CN)cc2)CC1`, the IC50 was above 30 µM in assay [1] and below 10 µM in assay [2].
Take `CC(C)N(C)C(=O)C(C)(C)CS(=O)(=O)c1ccc(OC/C(=C/F)CN)cc1`: the IC50 in assay [1] and in assay [2] was above 30 µM each time.
For `C[C@H](CN1CCC2(CCCC2)C1=O)CS(=O)(=O)c1ccc(OC/C(=C/F)CN)cc1`, the half-maximal inhibitory concentration (IC50) in assay [1] is above 30 µM; in assay [2], below 10 µM.
For `CC1(CS(=O)(=O)c2ccc(OC/C(=C/F)CN)cc2)CCOCC1`, the IC50 in assay [1] was above 30 µM; in assay [2], below 10 µM.
For the compound `CC(C)N1CCN(CS(=O)(=O)c2ccc(OC/C(=C/F)CN)cc2)C(=O)C1`, the IC50 in assay [1] and in assay [2] was above 30 µM throughout.
For the compound `NC/C(=C\F)COc1ccc(S(=O)(=O)CC23CCC(NC(=O)C4CC4)(CC2)CC3)cc1`, the half-inhibitory concentration (IC50) in assay [1] was above 30 µM.
In the case of `CN(C(=O)C1CC1)C12CCC(CS(=O)(=O)c3ccc(OC/C(=C/F)CN)cc3)(CC1)CC2`, the concentration for half-maximal inhibition (IC50) in assay [1] and in assay [2] was above 30 µM in each case.
On to `C[C@H](CN1CCCCC1=O)CS(=O)(=O)c1ccc(OC/C(=C/F)CN)cc1`, for which the IC50 in assay [1] and in assay [2] was above 30 µM each time.
In the case of `CC(C)C(=O)N1CCC(CS(=O)(=O)c2ccc(OC/C(=C/F)CN)cc2)C1` (configuration not stated), in assay [2], the IC50 was above 30 µM.
For `CN(C)C(=O)C12CCC(CS(=O)(=O)c3ccc(OC/C(=C/F)CN)cc3)(CC1)CC2`, the IC50 in assay [1] was above 30 µM.
Consider `NC/C(=C\F)COc1ccc(S(=O)(=O)Cc2ccc(C(=O)NC3CCC3)c(C(F)(F)F)c2)cc1`, for which the half-maximal inhibitory concentration (IC50) in assay [1] was above 30 µM.
For the compound `C[C@@H](CS(=O)(=O)c1ccc(OC/C(=C/F)CN)cc1)N1CCCCC1=O`, the IC50 in assay [1] is above 30 µM; in assay [2], below 10 µM.
In the case of `CC1(C(=O)N2CCN(CS(=O)(=O)c3ccc(OC/C(=C/F)CN)cc3)C(=O)C2)CCC1`, in assay [2], the IC50 was below 10 µM.
Take `CC(C)(C)C(=O)NC12CCC(CS(=O)(=O)c3ccc(OC/C(=C/F)CN)cc3)(CC1)C2`: in assay [1], the IC50 is below 10 µM.
As for `CC1(CS(=O)(=O)c2ccc(OC/C(=C/F)CN)cc2)CCN(C(=O)C2(C)CC2)CC1`, in assay [2], the 50% inhibitory concentration (IC50) was below 10 µM.
Regarding `N#CC1(CS(=O)(=O)c2ccc(OC/C(=C/F)CN)cc2)CCOCC1`, the IC50 in assay [2] was below 10 µM.
For `CCN(CC(C)(C)CS(=O)(=O)c1ccc(OC/C(=C/F)CN)cc1)C(=O)C(C)C`, in assay [1], the IC50 was above 30 µM.
Take `CC(C)C(=O)N(C)CC(C)(C)CS(=O)(=O)c1ccc(OC/C(=C/F)CN)cc1`: the concentration for half-maximal inhibition (IC50) in assay [1] was above 30 µM.
As to `NC/C(=C\F)COc1ccc(S(=O)(=O)CC2CCOCC2)c(Cl)c1`, in assay [2], the half-maximal inhibitory concentration (IC50) is below 10 µM.
`CC1CCN(C23CCC(CS(=O)(=O)c4ccc(OC/C(=C/F)CN)cc4)(CC2)CC3)C1=O` (configuration not stated): in assay [1], the IC50 is above 30 µM.
Still for that read-out and setting: the figure for `NC/C(=C\F)COc1ccc(S(=O)(=O)COCC2CCN(C(=O)C3(C(F)(F)F)CC3)CC2)cc1` is above 30 µM; for `NC/C(=C\F)COc1ccc(S(=O)(=O)CC23CCC(C4(O)CC4)(CC2)CC3)cc1` it is above 30 µM.
